Test system: NHBE cells
Assay: Biolog metabolic array: substrate use by NHBE cells with or without CA09 infection
Type: cell-based, human
Conditions: for Substrate use, 590 nm absorbance normalized to zero hour, 0 hr: Biolog PMM2, 0 hr; for Substrate use, 590 nm absorbance normalized to zero hour, 1 hr: Biolog PMM2, 1 hr; for Substrate use, 590 nm absorbance normalized to zero hour, 5 hr: Biolog PMM2, 5 hr; for Substrate use, 590 nm absorbance normalized to zero hour, 7 hr: Biolog PMM2, 7 hr
[1] = Control (uninfected) NHBE cells
[2] = Virus (CA09-infected, MOI 1) NHBE cells
[3] = Virus: CA09-infected NHBE cells, MOI 1, Biolog PMM2
[4] = Virus (CA09, MOI 1) infected NHBE cells
[5] = Virus (CA09-infected NHBE cells, MOI 1)

CO[C@H]1O[C@H](CO)[C@H](O)[C@H](O)[C@H]1O [a-Methyl-D-Galactoside]
590 nm absorbance normalized to zero hour (substrate use), 0 hr [1]: 1.00 | 590 nm absorbance normalized to zero hour (substrate use), 1 hr [1]: 1.13 | 590 nm absorbance normalized to zero hour (substrate use), 2 hr [1]: 0.68 | 590 nm absorbance normalized to zero hour (substrate use), 3 hr [1]: 0.80 | 590 nm absorbance normalized to zero hour (substrate use), 4 hr [1]: 0.84 | 590 nm absorbance normalized to zero hour (substrate use), 6 hr [1]: 1.20 | 590 nm absorbance normalized to zero hour (substrate use), 8 hr [1]: 1.15 | 590 nm absorbance normalized to zero hour (substrate use), 9 hr [1]: 1.29 | 590 nm absorbance normalized to zero hour (substrate use), 10 hr [1]: 1.42 | 590 nm absorbance normalized to zero hour (substrate use), 11 hr [1]: 1.06 | Substrate use, 590 nm absorbance normalized to zero hour, 0 hr [1]: 1.00 | Substrate use, 590 nm absorbance normalized to zero hour, 1 hr [1]: 1.13 | Substrate use, 590 nm absorbance normalized to zero hour, 5 hr [1]: 1.01 | Substrate use, 590 nm absorbance normalized to zero hour, 7 hr [1]: 1.15 | 590 nm absorbance normalized to zero hour (substrate use), 0 hr [2]: 1.00 | 590 nm absorbance normalized to zero hour (substrate use), 1 hr [2]: 2.91 | 590 nm absorbance normalized to zero hour (substrate use), 2 hr [2]: 1.88 | 590 nm absorbance normalized to zero hour (substrate use), 3 hr [2]: 1.16 | 590 nm absorbance normalized to zero hour (substrate use), 4 hr [2]: 1.24 | 590 nm absorbance normalized to zero hour (substrate use), 5 hr [2]: 1.43 | 590 nm absorbance normalized to zero hour (substrate use), 6 hr [2]: 1.51 | 590 nm absorbance normalized to zero hour (substrate use), 7 hr [2]: 1.59 | 590 nm absorbance normalized to zero hour (substrate use), 8 hr [2]: 1.67 | 590 nm absorbance normalized to zero hour (substrate use), 9 hr [2]: 1.83 | 590 nm absorbance normalized to zero hour (substrate use), 10 hr [2]: 1.89 | 590 nm absorbance normalized to zero hour (substrate use), 11 hr [2]: 2.05 | 590 nm absorbance normalized to zero hour (substrate use), 0 hr [3]: 1.00 | 590 nm absorbance normalized to zero hour (substrate use), 1 hr [3]: 2.91 | 590 nm absorbance normalized to zero hour (substrate use), 2 hr [3]: 1.88 | 590 nm absorbance normalized to zero hour (substrate use), 3 hr [3]: 1.16 | 590 nm absorbance normalized to zero hour (substrate use), 4 hr [3]: 1.24 | 590 nm absorbance normalized to zero hour (substrate use), 5 hr [3]: 1.43 | 590 nm absorbance normalized to zero hour (substrate use), 6 hr [3]: 1.51 | 590 nm absorbance normalized to zero hour (substrate use), 7 hr [3]: 1.59 | 590 nm absorbance normalized to zero hour (substrate use), 8 hr [3]: 1.67 | 590 nm absorbance normalized to zero hour (substrate use), 9 hr [3]: 1.83 | 590 nm absorbance normalized to zero hour (substrate use), 10 hr [3]: 1.89 | 590 nm absorbance normalized to zero hour (substrate use), 11 hr [3]: 2.05

CO[C@H]1O[C@H](CO)[C@@H](O)[C@H](O)[C@H]1O [a-Methyl-D-Glucoside]
590 nm absorbance normalized to zero hour (substrate use), 0 hr [1]: 1.00 | 590 nm absorbance normalized to zero hour (substrate use), 1 hr [1]: 1.18 | 590 nm absorbance normalized to zero hour (substrate use), 2 hr [1]: 1.07 | 590 nm absorbance normalized to zero hour (substrate use), 3 hr [1]: 1.02 | 590 nm absorbance normalized to zero hour (substrate use), 4 hr [1]: 0.58 | 590 nm absorbance normalized to zero hour (substrate use), 6 hr [1]: 0.90 | 590 nm absorbance normalized to zero hour (substrate use), 8 hr [1]: 0.74 | 590 nm absorbance normalized to zero hour (substrate use), 9 hr [1]: 0.79 | 590 nm absorbance normalized to zero hour (substrate use), 10 hr [1]: 0.83 | 590 nm absorbance normalized to zero hour (substrate use), 11 hr [1]: 0.93 | Substrate use, 590 nm absorbance normalized to zero hour, 0 hr [1]: 1.00 | Substrate use, 590 nm absorbance normalized to zero hour, 1 hr [1]: 1.18 | Substrate use, 590 nm absorbance normalized to zero hour, 5 hr [1]: 0.76 | Substrate use, 590 nm absorbance normalized to zero hour, 7 hr [1]: 0.68 | Substrate use, 590 nm absorbance normalized to zero hour, 0 hr [4]: 1.00 | Substrate use, 590 nm absorbance normalized to zero hour, 1 hr [4]: 1.29 | Substrate use, 590 nm absorbance normalized to zero hour, 5 hr [4]: 2.31 | Substrate use, 590 nm absorbance normalized to zero hour, 7 hr [4]: 2.67 | 590 nm absorbance normalized to zero hour (substrate use), 0 hr [2]: 1.00 | 590 nm absorbance normalized to zero hour (substrate use), 1 hr [2]: 1.29 | 590 nm absorbance normalized to zero hour (substrate use), 2 hr [2]: 1.66 | 590 nm absorbance normalized to zero hour (substrate use), 3 hr [2]: 1.87 | 590 nm absorbance normalized to zero hour (substrate use), 4 hr [2]: 1.99 | 590 nm absorbance normalized to zero hour (substrate use), 6 hr [2]: 2.50 | 590 nm absorbance normalized to zero hour (substrate use), 8 hr [2]: 2.77 | 590 nm absorbance normalized to zero hour (substrate use), 9 hr [2]: 3.14 | 590 nm absorbance normalized to zero hour (substrate use), 10 hr [2]: 3.10 | 590 nm absorbance normalized to zero hour (substrate use), 11 hr [2]: 3.31

CO[C@H]1O[C@H](CO)[C@@H](O)[C@H](O)[C@@H]1O [a-Methyl-D-Mannoside]
590 nm absorbance normalized to zero hour (substrate use), 0 hr [1]: 1.00 | 590 nm absorbance normalized to zero hour (substrate use), 1 hr [1]: 1.26 | 590 nm absorbance normalized to zero hour (substrate use), 2 hr [1]: 1.58 | 590 nm absorbance normalized to zero hour (substrate use), 3 hr [1]: 1.74 | 590 nm absorbance normalized to zero hour (substrate use), 4 hr [1]: 1.89 | 590 nm absorbance normalized to zero hour (substrate use), 6 hr [1]: 2.77 | 590 nm absorbance normalized to zero hour (substrate use), 8 hr [1]: 2.13 | 590 nm absorbance normalized to zero hour (substrate use), 9 hr [1]: 2.16 | 590 nm absorbance normalized to zero hour (substrate use), 10 hr [1]: 2.95 | 590 nm absorbance normalized to zero hour (substrate use), 11 hr [1]: 2.58 | Substrate use, 590 nm absorbance normalized to zero hour, 0 hr [1]: 1.00 | Substrate use, 590 nm absorbance normalized to zero hour, 1 hr [1]: 1.26 | Substrate use, 590 nm absorbance normalized to zero hour, 5 hr [1]: 2.33 | Substrate use, 590 nm absorbance normalized to zero hour, 7 hr [1]: 2.46 | 590 nm absorbance normalized to zero hour (substrate use), 0 hr [5]: 1.00 | 590 nm absorbance normalized to zero hour (substrate use), 1 hr [5]: 0.38 | 590 nm absorbance normalized to zero hour (substrate use), 2 hr [5]: 0.54 | 590 nm absorbance normalized to zero hour (substrate use), 3 hr [5]: 0.64 | 590 nm absorbance normalized to zero hour (substrate use), 4 hr [5]: 0.69 | 590 nm absorbance normalized to zero hour (substrate use), 5 hr [5]: 0.83 | 590 nm absorbance normalized to zero hour (substrate use), 6 hr [5]: 0.89 | 590 nm absorbance normalized to zero hour (substrate use), 7 hr [5]: 0.93 | 590 nm absorbance normalized to zero hour (substrate use), 8 hr [5]: 0.99 | 590 nm absorbance normalized to zero hour (substrate use), 9 hr [5]: 1.10 | 590 nm absorbance normalized to zero hour (substrate use), 10 hr [5]: 1.14 | 590 nm absorbance normalized to zero hour (substrate use), 11 hr [5]: 1.24 | 590 nm absorbance normalized to zero hour (substrate use), 0 hr [3]: 1.00 | 590 nm absorbance normalized to zero hour (substrate use), 1 hr [3]: 0.38 | 590 nm absorbance normalized to zero hour (substrate use), 2 hr [3]: 0.54 | 590 nm absorbance normalized to zero hour (substrate use), 3 hr [3]: 0.64 | 590 nm absorbance normalized to zero hour (substrate use), 4 hr [3]: 0.69 | 590 nm absorbance normalized to zero hour (substrate use), 5 hr [3]: 0.83 | 590 nm absorbance normalized to zero hour (substrate use), 6 hr [3]: 0.89 | 590 nm absorbance normalized to zero hour (substrate use), 7 hr [3]: 0.93 | 590 nm absorbance normalized to zero hour (substrate use), 8 hr [3]: 0.99 | 590 nm absorbance normalized to zero hour (substrate use), 9 hr [3]: 1.10 | 590 nm absorbance normalized to zero hour (substrate use), 10 hr [3]: 1.14 | 590 nm absorbance normalized to zero hour (substrate use), 11 hr [3]: 1.24

Source: patent publication US11083725B2 (priority 2014, dated 2021)
